Measured values from patent US6607885B1, “Method for high-density microarray medicated gene expression profiling” (priority 1999, dated 2003).

Experiments:
Format in all cases: cell-based, Escherichia coli
E. coli MG1655 = assay: IPTG induction, micro-array gene expression profiling
Procedure: E. coli MG1655 was cultured with aeration in either the minimal medium, M9 (Miller, J. H., Experiments in Molecular Genetics, Cold Spring Harbor (1972)), supplemented with 0.4% glucose or in the rich medium, LB (Miller, J. H., Experiments in Molecular Genetics, Cold Spring Harbor (1972)), at 37° C. The overnight culture was diluted 250 fold into fresh medium and aerated by shaking at 37° C. Samples of the minimal medium culture were harvested at A600=0.40 (exponential phase) and 1.6 (transition to stationary phase) prior to RNA isolation. An IPTG induction (Miller, J. H., Experiments in Molecular Genetics, Cold Spring Harbor (1972)) was performed to examine the specificity with which it effects gene expression. A culture grown overnight in LB at 37° C. was diluted 250 fold into fresh LB and aerated at 37° C. When the culture achieved an appropriate density (A600=0.40), it was split. To one portion was added IPTG to a final concentration of 1 mM; the untreated sample served as a control. Incubation of both samples was continued with aeration at 37° C. for another 15 min (A600=0.45 for both cultures) before RNA isolation was initiated.
RNA Isolation. An equivalent volume of shaved ice was added to 50 mL samples which were pelleted immediately in a refrigerated centrifuge by spinning at 10,410×g for 2 min. Each resultant pellet was resuspended in a mixture containing 100 μL of Tris HCl (10 mM, pH 8.0) and 350 μL of β-mercaptoethanol supplemented RLT buffer [Qiagen RNeasy Mini Kit, Valencia, Calif.]. The cell suspension was added to a chilled 2 mL screwed-capped microfuge tube containing 100 μL of 0.1 mm zirconia/silica beads (Biospec Product Inc., Bartlesville, Okla.). The cells were broken by agitation at room temperature for 25 sec with a Mini-Beadbeater™ (Biospec Products Inc., Bartlesville, Okla.). Debris was pelleted by centrifugation for 3 min at 16,000×g and 4° C.; the resultant supernatant was mixed with 250 μL of ethanol. This mixture was loaded onto a column from the Qiagen RNeasy Mini Kit. RNA isolation was completed using the protocol supplied with this kit. Incubation for 1 hr. at 37° C. in 40 mM Tris pH 8.0, 10 mM NaCl, 6 mM MgCl2 with RNase free RQ1 DNase (1 unit/μL, Promega, Madison, Wis.) digested any genomic DNA contaminating the RNA preparation. The digestion products were purified by a second passage through the RNeasy protocol (Qiagen, Valencia, Calif.). The product was eluted from the column in 50 μL RNAse-free water prior to determining sample concentration by an A260 reading. RNA preparations were stored frozen at either −20 or −80° C.
Synthesis of fluorescent cDNA from total RNA. Six microgram of RNA template and 12 μg of random hexamer primers (Operon Technologies, Inc., Alameda, Calif.) were diluted with double distilled (dd) water to a volume of 22 μL. Annealing was accomplished by incubation at 70° C. for 10 min followed by 10 min at room temperature. In order were added: 8 μL of 5×SuperScript II reaction buffer (Life Technologies, Inc., Gaithersberg, Md.), 4 μL of 0.1 M DTT, 2 μL of the dNTP mix (2 mM dATP, 2 mM dGTP, 2 mM TTP, 1 mM dCTP), 2 μL of 0.5 mM Cy3- or Cy5-dCTP (Amersham Pharmacia Biotech, Arlington Heights, Ill.), and 2 μL of SuperScript II reverse transcriptase ([…], Life Technologies Inc., Gaithersberg, Md.). DNA synthesis proceeded at 42° C. for 2.5 hr. before the reaction was terminated by heating at 94° C. for 5 min. Alkaline hydrolysis of the RNA templates was achieved by adding 2 μL of 5M NaOH followed by incubation at 37° C. for 10 min. Hydrolysis was terminated by the sequential addition of 3 μL of 5M HCl and 5 μL of 1M Tris-HCl, pH 6.8. The labeled cDNA was purified with a PCR purification kit (Qiagen, Valencia, Calif.), dried in a speed vacuum and stored at −20° C. Labeling efficiency was monitored using either A550, for Cy3 incorporation, or A650, for Cy5 labeling, to A260 ratios.
Hybridization and washing. […]

E. coli DM803 (lexAind) = assay: MMC exposure, gene expression profile of DM803 (lexAind); details: MMC for 40 min
Procedure: (§1) Strains E. coli strain, MG1655, was used to determine the gene expression profile of E. coli in response to a MMC challenge. Two isogenic E. coli strains (Mount et al, J. Bacteriol. 112:886-893 (1972)), DM800 (lexA^+), used as control displaying a normal response to DNA damage, and DM803 (lexA^ind), a strain unable to mount the predominant “SOS” response to DNA damage, were compared using comprehensive gene expression profiling.
(§2) MMC experiment MG1655 cells were grown in LB overnight with aeration. The overnight cultures were diluted 100 fold in LB to final volume of 500 mL and grown at 37° C. to exponential phase. 200 mL of culture was treated with MMC to the final concentration of 250 ng/mL. Another 200 mL of culture were mock treated without MMC for comparison. Cells were harvested at 15 min and 40 min for MG1655 strain. With DM800 and DM803 stains, cells, cultured in an identical manner, were harvested after 40 min exposure. RNA was isolated and gene expression profile was analyzed as shown in Examples 1 and 2.

E. coli strain MG1655 = assay: MMC exposure, gene expression profile of MG1655
Procedure: as §1, §2

E. coli DM800 (lexA+) = assay: MMC exposure, gene expression profile of DM800 (lexA+); details: MMC for 40 min
Procedure: as §1, §2

SMILES: CC(C)S[C@@H]1O[C@H](CO)[C@H](O)[C@H](O)[C@H]1O [IPTG, isopropylthiogalactoside]
- number of genes whose expression increased by a factor of more than 2 (E. coli MG1655; 1 mM IPTG for 15 min): 8 genes
- two-fold or greater repression of arrayed genes (E. coli MG1655; 1 mM IPTG for 15 min): not observed
- fold IPTG induction of b0956/ycbG (E. coli MG1655; gene b0956/ycbG (hydrogenase?), 1 mM IPTG, 15 min, LB, 37° C.): 2.5 fold
- fold IPTG induction of b1783/yeaG (E. coli MG1655; gene b1783/yeaG, 1 mM IPTG, 15 min, LB, 37° C.): 3.6 fold
- fold IPTG induction of b2324 (E. coli MG1655; gene b2324 (peptidase?), 1 mM IPTG, 15 min, LB, 37° C.): 5.3 fold
- fold IPTG induction of lacA (E. coli MG1655; gene lacA (thiogalactoside acyltransferase), 1 mM IPTG, 15 min, LB, 37° C.): 36 fold
- fold IPTG induction of lacY (E. coli MG1655; gene lacY (galactoside permease), 1 mM IPTG, 15 min, LB, 37° C.): 14 fold
- fold IPTG induction of lacZ (E. coli MG1655; gene lacZ (galactosidase), 1 mM IPTG, 15 min, LB, 37° C.): 29 fold
- fold IPTG induction of melA (E. coli MG1655; gene melA (galactosidase), 1 mM IPTG, 15 min, LB, 37° C.): 2.9 fold
- fold IPTG induction of uxaA (E. coli MG1655; gene uxaA (altronate hydrolase), 1 mM IPTG, 15 min, LB, 37° C.): 4.0 fold

SMILES: CO[C@@]12[C@H](COC(N)=O)C3=C(C(=O)C(C)=C(N)C3=O)N1C[C@@H]1N[C@@H]12 [MMC, mitomycin C]
- induction of SOS responsive genes, including lexA (E. coli DM803 (lexAind)): not induced
- induction of dicB, dicC, sdiA, cheW, motA, cycA, fadL, chaC, codB and btuC (E. coli DM803 (lexAind)): greater than 2 fold
- number of genes with expression elevated greater than 2 fold relative to the control (E. coli strain MG1655; 40 min exposure, MMC 250 ng/mL): 40 genes
- number of stress response genes induced more than 2 fold (E. coli strain MG1655; 40 min exposure, recN, dinI, sulA, lexA, recA, uvrA, dinD, priC, umuC, mioC, uvrB, ruvA, xseA): 13 genes
- SOS response (E. coli strain MG1655; cells harvested at 15 min post exposure, MMC 250 ng/mL): very little
- induction of SOS responsive genes (E. coli DM800 (lexA+)): greater than 2 fold
- induction of dicB, dicC, sdiA, cheW, motA, cycA, fadL, chaC, codB and btuC (E. coli DM800 (lexA+)): not induced
